Measured values reported in ChEMBL document CHEMBL5257018, “Novel Strategies for the Treatment of Pseudomonas aeruginosa Infections” (J Med Chem, 2016).
In brackets after ≈: the same amount, converted by molar mass. Values belong to the molecule of their own block, whether it stands above or below them.

What was measured:
[1] = test system: Pseudomonas aeruginosa; experiment: Antibiofilm activity against Pseudomonas aeruginosa PA14 assessed as inhibition of biofilm formation at 100 uM; format: functional; set-up: scale not given: the % may be the effect or the level left
[2] = Inhibition of bacterial FabH; set-up: species or system Bacteria
[3] = test system: Pseudomonas aeruginosa; experiment: Antibiofilm activity against Pseudomonas aeruginosa assessed as reduction in biofilm formation at 100 uM measured after 24 hrs; format: functional; set-up: scale not given: the % may be the effect or the level left
[4] = test system: Pseudomonas aeruginosa; experiment: Antibiofilm activity against Pseudomonas aeruginosa assessed as reduction in biofilm formation; format: functional, organism-based
[5] = molecular target: Elastase (Pseudomonas aeruginosa (strain ATCC 15692 / PAO1 / 1C / PRS 101 / LMG12228)) (UniProt P14756); experiment: Inhibition of Pseudomonas aeruginosa PAO1 elastase at 250 uM relative to control
[6] = test system: Pseudomonas aeruginosa; experiment: Inhibition of biofilm formation in Pseudomonas aeruginosa PAO1 assessed as reduction in biofilm formation at 250 uM measured for 2 hrs by scanning confocal laser microscopic analysis; format: functional
[7] = test system: Pseudomonas aeruginosa; experiment: Inhibition of Pseudomonas aeruginosa PAO1 Rhamnolipid at 250 uM by spectrophotometrical analysis relative to control
[8] = test system: Pseudomonas aeruginosa; experiment: Inhibition of Pseudomonas aeruginosa PAO1 Pyocyanin at 250 uM relative to control
[9] = molecular target: T1, Acyl-homoserine lactone acylase PvdQ (Pseudomonas aeruginosa (strain LESB58), UniProt Q9I194); experiment: Inhibition of wild type Pseudomonas aeruginosa PAO1 pvdQ
T1 sequence (Q9I194 whole entry): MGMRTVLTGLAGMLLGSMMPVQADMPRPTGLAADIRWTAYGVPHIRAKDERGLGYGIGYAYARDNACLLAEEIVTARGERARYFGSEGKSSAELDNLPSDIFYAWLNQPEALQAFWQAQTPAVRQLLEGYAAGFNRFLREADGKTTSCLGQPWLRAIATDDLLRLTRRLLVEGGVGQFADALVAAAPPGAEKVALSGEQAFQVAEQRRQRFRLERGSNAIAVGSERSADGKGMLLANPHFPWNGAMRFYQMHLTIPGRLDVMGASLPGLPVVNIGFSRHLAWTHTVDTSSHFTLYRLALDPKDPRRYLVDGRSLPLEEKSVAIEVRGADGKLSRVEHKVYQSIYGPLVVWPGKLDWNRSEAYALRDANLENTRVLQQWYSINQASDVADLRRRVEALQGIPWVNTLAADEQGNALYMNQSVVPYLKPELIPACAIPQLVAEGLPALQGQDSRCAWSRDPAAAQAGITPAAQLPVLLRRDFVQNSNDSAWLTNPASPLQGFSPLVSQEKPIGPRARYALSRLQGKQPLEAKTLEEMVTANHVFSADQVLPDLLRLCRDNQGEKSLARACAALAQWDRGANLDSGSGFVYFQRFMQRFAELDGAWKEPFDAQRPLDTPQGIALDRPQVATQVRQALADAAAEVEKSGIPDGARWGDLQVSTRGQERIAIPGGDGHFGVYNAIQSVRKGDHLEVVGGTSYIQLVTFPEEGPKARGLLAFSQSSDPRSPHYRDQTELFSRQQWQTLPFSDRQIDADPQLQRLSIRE

[10] = molecular target: T1, Acyl-homoserine lactone acylase PvdQ; experiment: Competitive inhibition of Pseudomonas aeruginosa ATCC 15692 pvdQ
[11] = molecular target: T1, Acyl-homoserine lactone acylase PvdQ; experiment: Inhibition of Pseudomonas aeruginosa ATCC 15692 pvdQ measured after 5 mins
[12] = test system: Pseudomonas aeruginosa; experiment: Antibiofilm activity against Pseudomonas aeruginosa PAO1 assessed as inhibition of biofilm formation; format: functional, organism-based
[13] = test system: Pseudomonas aeruginosa; experiment: Antibiofilm activity against Pseudomonas aeruginosa PA14 assessed as inhibition of biofilm formation; format: functional, organism-based
[14] = test system: Pseudomonas aeruginosa; experiment: Antagonist activity at Pseudomonas aeruginosa MvfR at 15 uM relative to control; set-up: scale not given: the % may be the effect or the level left; details: filed as antagonist
[15] = test system: Pseudomonas aeruginosa; experiment: Antibiofilm activity against Pseudomonas aeruginosa assessed as reduction in biofilm formation at 100 uM; format: functional; set-up: scale not given: the % may be the effect or the level left
[16] = molecular target: T2, Elastase (Pseudomonas aeruginosa (strain ATCC 15692 / PAO1 / 1C / PRS 101 / LMG12228), UniProt P14756); experiment: Inhibition of Pseudomonas aeruginosa LasB elastase
[17] = molecular target: T2, Elastase; experiment: Inhibition of Pseudomonas aeruginosa LasB elastase using aminobenzoyl-Ala-Gly-Leu-Ala-p-nitro-benzyl-amide as substrate b microtiter-based fluorimetric assay
[18] = test system: Pseudomonas aeruginosa; experiment: Inhibition of Pseudomonas aeruginosa PAO1 Pyocyanin at 100 uM relative to control
[19] = molecular target: T1, Acyl-homoserine lactone acylase PvdQ; experiment: Inhibition of Pseudomonas aeruginosa ATCC 15692 pvdQ
[20] = molecular target: T1, Acyl-homoserine lactone acylase PvdQ; experiment: Inhibition of Pseudomonas aeruginosa ATCC 15692 pvdQ incubated for 4 hrs
[21] = molecular target: T3, PA-I galactophilic lectin (Pseudomonas aeruginosa (strain ATCC 15692 / PAO1 / 1C / PRS 101 / LMG12228)) (UniProt Q05097); experiment: Binding affinity to Pseudomonas aeruginosa PAO1 LecA assessed as dissociation constant
T3 sequence (whole entry): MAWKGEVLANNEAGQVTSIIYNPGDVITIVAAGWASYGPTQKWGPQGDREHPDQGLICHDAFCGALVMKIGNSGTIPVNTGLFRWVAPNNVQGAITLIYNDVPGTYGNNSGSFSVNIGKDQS

[22] = Inhibition of elastase (unknown origin); set-up: species or system Homo sapiens
[23] = test system: Pseudomonas aeruginosa; experiment: Inhibition of Pseudomonas aeruginosa PAO1 Pyocyanin at 200 uM relative to control
[24] = molecular target: Elastase (Pseudomonas aeruginosa (strain ATCC 15692 / PAO1 / 1C / PRS 101 / LMG12228)) (UniProt P14756); experiment: Inhibition of Pseudomonas aeruginosa PAO1 elastase at 200 uM relative to control
[25] = molecular target: T4, Transcriptional activator protein LasR (Pseudomonas aeruginosa (strain ATCC 15692 / PAO1 / 1C / PRS 101 / LMG12228)) (UniProt P25084); experiment: Inhibition of Pseudomonas aeruginosa PAO1 LasR at 440 uM relative to control
T4 sequence (whole entry): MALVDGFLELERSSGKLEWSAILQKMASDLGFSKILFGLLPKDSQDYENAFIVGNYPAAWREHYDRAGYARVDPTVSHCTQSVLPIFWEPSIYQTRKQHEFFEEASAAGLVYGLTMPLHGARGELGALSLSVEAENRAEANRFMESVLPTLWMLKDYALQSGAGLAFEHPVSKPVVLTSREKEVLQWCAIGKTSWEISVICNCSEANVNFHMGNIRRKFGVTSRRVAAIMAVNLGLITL

[26] = test system: Pseudomonas aeruginosa; experiment: Inhibition of Pseudomonas aeruginosa PAO1 Pyocyanin at 440 uM relative to control
[27] = test system: Pseudomonas aeruginosa; experiment: Antibacterial activity against Pseudomonas aeruginosa PAO1 infected in Caenorhabditis elegans worms assessed as worms survival rate at 880 uM measured after 72 hrs; format: functional
[28] = Antagonist activity at Pseudomonas aeruginosa MvfR
[29] = Inhibition of quorum sensing system in Pseudomonas aeruginosa PAO1 assessed as decrease in pqsR expression by PCR analysis
[30] = species on record: Homo sapiens; experiment: Inhibition of elastase (unknown origin) at 10 uM relative to control
[31] = test system: Pseudomonas aeruginosa; experiment: Antibacterial activity against multidrug resistant Pseudomonas aeruginosa assessed as reduction in bacterial growth; format: functional
[32] = Binding affinity to D-galactose (unknown origin) assessed as dissociation constant
[33] = test system: Pseudomonas aeruginosa; experiment: Antibacterial activity against Pseudomonas aeruginosa PAO1 infected in Caenorhabditis elegans worms assessed as worms survival at 50 uM measured after 24 hrs; format: functional
[34] = test system: Pseudomonas aeruginosa; experiment: Inhibition of biofilm formation in Pseudomonas aeruginosa assessed as reduction in biofilm formation; format: functional, organism-based
[35] = molecular target: T5, Hexosaminidase D (Homo sapiens, UniProt Q8WVB3); experiment: Inhibition of human recombinant beta-hexosaminidase
T5 sequence (Q8WVB3 whole entry): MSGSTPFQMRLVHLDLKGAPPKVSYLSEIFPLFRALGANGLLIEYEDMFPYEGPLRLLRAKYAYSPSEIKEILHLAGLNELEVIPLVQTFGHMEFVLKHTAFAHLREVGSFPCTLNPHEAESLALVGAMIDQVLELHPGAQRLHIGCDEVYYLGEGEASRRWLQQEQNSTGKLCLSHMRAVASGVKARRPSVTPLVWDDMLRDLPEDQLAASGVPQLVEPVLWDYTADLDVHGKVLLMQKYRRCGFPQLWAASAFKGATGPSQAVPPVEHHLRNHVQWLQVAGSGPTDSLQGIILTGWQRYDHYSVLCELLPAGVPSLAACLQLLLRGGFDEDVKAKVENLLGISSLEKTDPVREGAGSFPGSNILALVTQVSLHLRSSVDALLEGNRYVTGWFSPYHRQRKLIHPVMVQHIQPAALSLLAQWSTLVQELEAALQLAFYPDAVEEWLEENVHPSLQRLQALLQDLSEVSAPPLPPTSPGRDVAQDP

[36] = test system: Pseudomonas aeruginosa; experiment: Antimicrobial activity against Pseudomonas aeruginosa PA14 assessed as reduction in bacterial growth; format: functional
[37] = test system: Pseudomonas aeruginosa; experiment: Antimicrobial activity against Pseudomonas aeruginosa assessed as reduction in bacterial growth; format: functional, organism-based
[38] = test system: Pseudomonas aeruginosa; experiment: Antimicrobial activity against Pseudomonas aeruginosa infected in mouse pneumonia model administered twice a day measured after 48 hrs; format: functional
[39] = Inhibition of Pseudomonas aeruginosa FabI

T2 sequence (P14756 whole entry): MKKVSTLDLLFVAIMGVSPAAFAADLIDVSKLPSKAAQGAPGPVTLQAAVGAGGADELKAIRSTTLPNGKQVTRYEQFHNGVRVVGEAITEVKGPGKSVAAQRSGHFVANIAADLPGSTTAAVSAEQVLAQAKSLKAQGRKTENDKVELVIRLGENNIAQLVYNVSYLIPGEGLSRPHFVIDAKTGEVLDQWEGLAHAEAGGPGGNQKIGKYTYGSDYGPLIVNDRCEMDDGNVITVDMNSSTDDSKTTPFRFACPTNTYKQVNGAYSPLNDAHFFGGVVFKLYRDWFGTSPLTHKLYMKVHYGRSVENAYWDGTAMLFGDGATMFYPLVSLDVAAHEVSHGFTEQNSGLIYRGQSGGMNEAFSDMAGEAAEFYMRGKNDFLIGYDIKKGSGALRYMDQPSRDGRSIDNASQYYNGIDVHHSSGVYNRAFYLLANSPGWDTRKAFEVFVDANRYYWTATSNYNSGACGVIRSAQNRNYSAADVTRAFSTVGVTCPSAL
Elastase (Pseudomonas aeruginosa (strain ATCC 15692 / PAO1 / 1C / PRS 101 / LMG12228)), sequence (P14756 198-498 limits assumed): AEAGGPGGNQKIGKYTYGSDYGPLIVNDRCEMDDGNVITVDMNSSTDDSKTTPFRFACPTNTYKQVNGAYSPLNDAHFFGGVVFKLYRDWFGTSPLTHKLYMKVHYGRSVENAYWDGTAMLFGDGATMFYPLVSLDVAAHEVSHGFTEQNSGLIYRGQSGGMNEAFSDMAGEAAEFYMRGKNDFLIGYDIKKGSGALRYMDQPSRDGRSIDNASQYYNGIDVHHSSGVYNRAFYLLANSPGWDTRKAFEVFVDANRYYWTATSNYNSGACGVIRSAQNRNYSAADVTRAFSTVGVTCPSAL

SMILES: CCCCCCS(=O)(=O)NCCCc1c[nH]c(N)n1
Activity [1]: 42%

IC50 [2]: 35 µM
SMILES: CCN(CC)S(=O)(=O)c1cccc(C(=O)Nc2cccc(O)c2C(=O)O)c1

IC50 [4]: 0.046 µM
SMILES: COc1ccc2[nH]c(SCc3ccc(C)cc3)nc2c1
Activity [3]: 50%

inhibition [5]: 77% | inhibition [7]: 87% | inhibition [8]: 64%
SMILES: CCCCCCCCCC(=O)NC1CCCC1 [N-CYCLOPENTYLDECANAMIDE]
inhibition at 250 µM [6]: 100%

IC50 [9]: 19 µM | Ki [10]: 0.00019 µM | IC50 [11]: 1.9 µM
SMILES: N#CC(c1ccc(F)cc1)c1cccc(C(F)(F)F)n1 (stereo not drawn)

IC50 [12]: 5.6 µM | IC50 [13]: 0.53 µM
SMILES: C/C(=C\c1ccccc1)Cn1cc(CCCCCc2c[nH]c(N)n2)nn1

Activity [14]: 44%
SMILES: CCCCCCCc1cc(=O)c2cc([N+](=O)[O-])ccc2[nH]1

IC50 [4]: 26 µM
SMILES: O=C(Nc1ccc(Nc2ccccc2)cc1)c1ccccc1
Activity [15]: 22%

IC50 [16]: 6 µM | Ki [17]: 0.041 µM
SMILES: NC(=O)[C@H](Cc1ccc(O)cc1)NC(=O)[C@H](Cc1ccccc1)NC(=O)CS

inhibition [18]: 90%
SMILES: CCCCCCCCCNC(=O)CC(=O)c1ccccc1

IC50 [19]: 65 µM | IC50 [20]: < 0.02 µM
SMILES: O=c1onc2n1-c1cc(Br)ccc1OC2

K [21]: 28 nM
SMILES: OC[C@H]1O[C@@H](OCc2cn([C@H]3[C@H](O)[C@@H](O)[C@H](c4cn([C@H]5[C@H](O)[C@@H](O)[C@H](n6cc([C@@H]7O[C@H](CO)[C@@H](n8cc(CO[C@@H]9O[C@H](CO)[C@H](O)[C@H](O)[C@H]9O)nn8)[C@H](O)[C@H]7O)nn6)O[C@@H]5CO)nn4)O[C@@H]3CO)nn2)[C@H](O)[C@@H](O)[C@H]1O

IC50 [22]: 380 µM
SMILES: COc1cc(/C=C2\S/C(=N\c3ccccc3)N(c3ccccc3)C2=O)cc(OC)c1O

inhibition [23]: 93% | inhibition [24]: 63%
SMILES: CCCCCCCCCC(=O)CC(=O)Nc1cccc(OC)c1

inhibition [25]: 48% | inhibition [26]: 85%
SMILES: O=C1CNC(=O)CN1 [DIKETOPIPERAZINE]
Activity [27]: 66%

IC50 [28]: 0.002 µM | IC50 [29]: 2 µM
SMILES: CCCCCCCc1[nH]c2ccc([N+](=O)[O-])cc2c(=O)c1C(N)=O

IC50 [2]: 65 µM
SMILES: CCN(CC)S(=O)(=O)c1cc(C(=O)Nc2ccccc2C(=O)O)ccc1Br

inhibition [30]: 50%
SMILES: CCCCCCCCCC(=O)CC(=O)Nc1ccccc1O

SMILES: CNc1cc(F)cc2c1[nH]c1nc(Sc3cnc(C)nc3)nc(N3C[C@H]4C[C@@H](N(C)C)[C@H]4C3)c12
MIC [31]: 2 µg/mL (≈ 4.18 µM)

IC50 [19]: 130 µM | IC50 [20]: < 0.02 µM
SMILES: C=CCNc1ncnc2ccc(Br)cc12

Kd [32]: 87.5 µM
SMILES: O=C[C@H](O)[C@@H](O)[C@@H](O)[C@H](O)CO [GALACTOSE]

IC50 [34]: 8 µM
SMILES: O=C(CCCOc1ccc(Br)cc1)NC1CCSC1=O (stereo not drawn)
Activity [33]: 23%

IC50 [35]: 12.5 µM
SMILES: C[C@@H](Oc1ccc(Cl)cc1Cl)C(=O)NCc1ccc2c(c1)OCO2

MIC [36]: 3.4 µg/mL (≈ 3.7 µM) | MIC [37]: 1 µg/mL (≈ 1.09 µM)
SMILES: CO[C@H](C(N)=O)[C@H](NC(=O)c1ccc(NC(=O)c2ccc([N+](=O)[O-])cc2)cc1)C(=O)Nc1ccc(C(=O)Nc2ccc(C(=O)Nc3ccc(C(=O)O)cc3OC(C)C)c(O)c2OC(C)C)cc1

SMILES: COc1ccc(-c2ccn(CC[C@](C)(C(=O)NO)S(C)(=O)=O)c(=O)c2)c(F)c1
ED50 [38]: < 25 mg/kg

SMILES: Oc1cc(Cl)ccc1Oc1ccc(Cl)cc1Cl [TRICLOSAN]
IC50 [39]: 0.2 µM
